Reference: ChEMBL document CHEMBL2029318, “Synthesis and SAR of selective small molecule neuropeptide Y Y2 receptor antagonists” (Bioorg Med Chem Lett, 2012)
Active and inactive are the calls of the source. No rule for the calls is given here.

Experiments:
[1] = molecular target: T1, Neuropeptide Y receptor type 1 (Homo sapiens) (UniProt P25929); experiment: Antagonist activity at neuropeptide Y receptor Y1 at 10 uM; type: functional
T1 sequence (whole entry): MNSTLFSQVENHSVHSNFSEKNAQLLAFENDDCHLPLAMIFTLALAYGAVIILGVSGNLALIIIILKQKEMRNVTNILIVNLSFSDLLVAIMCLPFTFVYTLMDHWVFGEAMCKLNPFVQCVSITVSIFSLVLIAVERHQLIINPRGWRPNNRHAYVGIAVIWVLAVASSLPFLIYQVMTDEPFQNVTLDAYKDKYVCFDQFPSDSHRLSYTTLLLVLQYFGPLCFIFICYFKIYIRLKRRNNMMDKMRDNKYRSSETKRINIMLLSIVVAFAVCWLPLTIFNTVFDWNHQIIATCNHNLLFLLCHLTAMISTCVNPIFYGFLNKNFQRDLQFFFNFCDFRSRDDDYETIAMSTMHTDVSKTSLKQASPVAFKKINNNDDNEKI

[2] = molecular target: T2, Neuropeptide Y receptor type 2 (Homo sapiens, UniProt P49146); experiment: Partial antagonist activity at neuropeptide Y receptor Y2; type: functional
T2 sequence (P49146 whole entry): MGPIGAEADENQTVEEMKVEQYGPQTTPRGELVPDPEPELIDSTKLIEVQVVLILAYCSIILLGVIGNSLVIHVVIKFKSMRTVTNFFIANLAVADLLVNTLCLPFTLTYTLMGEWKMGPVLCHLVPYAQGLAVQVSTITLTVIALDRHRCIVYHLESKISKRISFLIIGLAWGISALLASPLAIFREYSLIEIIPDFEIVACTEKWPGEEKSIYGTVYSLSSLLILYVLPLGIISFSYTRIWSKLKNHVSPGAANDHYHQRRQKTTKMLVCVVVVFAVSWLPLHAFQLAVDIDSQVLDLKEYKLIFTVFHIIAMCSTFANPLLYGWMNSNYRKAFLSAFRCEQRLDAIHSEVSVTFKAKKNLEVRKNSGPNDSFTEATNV

Activity [1]: inactive | IC50 [2]: 6.08 µM
SMILES: COc1ccc(NC(=S)N2CCC(C(O)(c3ccccc3)c3ccccc3)CC2)cc1C(F)(F)F
